Source: US12496301B2, “Use of androgen receptor degrader for the treatment of spinal and bulbar muscular atrophy” (Arvinas Operations, Inc., priority 2023, dated 2025)
Entries after “also recorded” stand apart in the source; their conditions may differ.

How the values were obtained:
polyQ-AR [1] = assay: Global proteomics in SBMA hiPSC-myotubes: polyQ-AR and specificity; format: cell-based, human
Text: (FIG. 12A). […] (FIG. 12C).

AR = biological target: T1, AR (Homo sapiens, UniProt P10275); assay: AR agonism assay in MDA-MB-453 ARE-luc reporter cells in the presence of pomalidomide; format: cell-based; conditions: MDA-MB-453 AR luciferase reporter, with pomalidomide
T1 sequence (P10275 1-920 Q868H): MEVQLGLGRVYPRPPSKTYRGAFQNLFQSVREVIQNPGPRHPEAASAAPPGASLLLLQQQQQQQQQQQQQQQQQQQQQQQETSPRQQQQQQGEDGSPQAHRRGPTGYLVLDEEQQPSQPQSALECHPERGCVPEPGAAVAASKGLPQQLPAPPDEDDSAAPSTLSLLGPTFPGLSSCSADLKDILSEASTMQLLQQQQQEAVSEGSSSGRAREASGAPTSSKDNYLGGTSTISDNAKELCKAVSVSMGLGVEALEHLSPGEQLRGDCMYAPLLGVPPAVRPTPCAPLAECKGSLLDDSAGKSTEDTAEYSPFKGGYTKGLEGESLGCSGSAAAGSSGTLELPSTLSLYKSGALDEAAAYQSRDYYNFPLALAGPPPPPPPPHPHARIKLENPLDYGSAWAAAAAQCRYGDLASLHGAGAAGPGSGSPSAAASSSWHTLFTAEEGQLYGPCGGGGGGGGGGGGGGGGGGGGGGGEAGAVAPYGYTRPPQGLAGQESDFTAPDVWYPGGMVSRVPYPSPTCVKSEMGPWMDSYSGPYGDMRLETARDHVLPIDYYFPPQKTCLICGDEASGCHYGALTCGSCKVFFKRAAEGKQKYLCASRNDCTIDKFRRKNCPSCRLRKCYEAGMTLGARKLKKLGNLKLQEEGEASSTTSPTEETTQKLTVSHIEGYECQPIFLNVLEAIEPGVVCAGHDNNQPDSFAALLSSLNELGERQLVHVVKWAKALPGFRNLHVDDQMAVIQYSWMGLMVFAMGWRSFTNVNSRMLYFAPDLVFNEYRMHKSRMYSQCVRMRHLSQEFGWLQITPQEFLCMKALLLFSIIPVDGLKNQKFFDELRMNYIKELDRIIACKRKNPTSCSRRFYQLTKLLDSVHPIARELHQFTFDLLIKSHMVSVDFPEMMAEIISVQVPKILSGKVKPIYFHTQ
Procedure: The AR Responsive Luciferase Reporter MDA-MB-453 Stable Cell Line (MDA-MB-453 ARE-luc) was utilized for the AR agonism assay. These cells constitutively express the firefly luciferase reporter gene under the control of the androgen receptor response element. MDA-MB-453 ARE-luc cells were cultured in RPMI media (Thermo Fisher Scientific) supplemented with 5% charcoal-Dextran treated fetal bovine serum and were maintained at 37° C. in a 5% CO2 incubator. On day 0, the cells were seeded in 96-well plates at a density of 5×10^6 cells per plate. To prevent serum androgen interference during the AR agonism assay, the cells were cultured in phenol-free RPMI media without FBS. On day 1, the cells were treated with the compounds to establish concentration-response curves (CRCs). The compounds were administered at a top concentration of 300 nM with half-log dilutions. The synthetic AR agonist R1881 served as a positive control, with a top concentration of 30 nM and half-log dilutions. E3 ligase inhibitor pomalidomide was included in each well alongside the compounds at a concentration tenfold higher than that of the treated compounds. On day 2, the culture medium was removed, and luminescence data were obtained using the Bright Glo Assay (Promega, Catalog No. E2620) with 50 μL of Bright Glo buffer per well. Luminescence signals were recorded using a plate reader, and the agonism effect was calculated as a percentage using the formula: Agonism effect (%)=(Luminescence signal of compound/Maximum signal of R1881 at 30 nM)*100.

polyQ-AR [2] = assay: Myotube high content imaging of polyQ-AR in myotubes that overexpress polyQ-AR; format: cell-based, human; conditions: 24 hours treatment, nuclear compartment
Procedure: Cells were maintained in skeletal growth medium (PromoCell #23160). Immortalized myoblasts harboring inducible human androgen receptor with 56 CAG repeats (hAR56Q) were constructed by lentiviral transduction with CMV-rtTA and TetO-AR56Q-T2A-Puromycin (Mamchaoui, K. et al. Skeletal Muscle 1, 34 (2011)).
On day 0, immortalized myoblasts with inducible polyQ-AR (described above in “Cell lines”) cells were seeded onto Geltrex-coated 96-well plates at a density of 4×10^6 cells per plate in myoblast basal media (Promocell C-23060) supplemented with 1% penicillin-streptomycin (Pen Strep) antibiotics. The plates were then incubated overnight at 37° C. in a 5% CO2 environment. Upon reaching 100% confluency (Day 1), the myoblast media were aspirated and replaced with myotube differentiation media (Promocell C-23061). The cells were cultured in this differentiation media for 6 days, with media changes occurring every three days.
On the sixth day of differentiation, the compounds and doxycycline ([…]) diluted in 100% dimethyl sulfoxide (DMSO) were added to the myotubes. The plate was then incubated for 24 hours at 37° C. in an incubator. On the following day (Day 7), the culture media was removed from the plates and replaced with 50 μL of 4% paraformaldehyde (PFA) prepared in 1× phosphate-buffered saline (PBS). The plates were incubated with PFA for 15 minutes, followed by three washes with PBS. Subsequently, the myotubes were permeabilized for 15 minutes using 0.5% Triton X-100 in 1×PBS and then blocked with 5% Bovine Serum Albumin (BSA) (Thermofisher, #37520) for one hour at room temperature. After blocking, the plates were incubated overnight at 4° C. with primary antibodies: a 1:100 diluted Androgen Receptor antibody (D6F11 Cell Signaling 5135S) and a 1:200 diluted Desmin antibody (Thermofisher, MA1-22150) in PBS containing 0.1% BSA. […] Degradation was quantified by determining the average intensity of AR within separate nuclear and cytoplasmic compartments in Desmin positive area (myotubes).

CC(C)N(CC1CCN(c2ncc(C(=O)N[C@H]3C(C)(C)[C@H](Oc4ccc(C#N)c(Cl)c4)C3(C)C)cn2)CC1)[C@H]1C[C@H](Oc2ccc3c(c2)C(=O)N(C2CCC(=O)NC2=O)C3=O)C1 (some centres unmarked) [Compound A, N-((1r,3r)-3-(3-chloro-4-cyanophenoxy)-2,2,4,4-tetramethylcyclobutyl)-2-(4-((((1r,3r)-3-((2-(2,6-dioxopiperidin-3-yl)-1,3-dioxoisoindolin-5-yl)oxy)cyclobutyl)(isopropyl)amino)methyl)piperidin-1-yl)pyrimidine-5-carboxamide]
polyQ-AR degradation compared to control, global proteomics (polyQ-AR [1]; 12 nM, SBMA hiPSC-myotubes): induces degradation of polyQ-AR; also recorded: degrades polyQ-AR
neosubstrates (off-target substrates) identified (polyQ-AR [1]; out of ~7,600 proteins detected in myotubes): single neosubtrate; also recorded: only one neosubstrate
agonism activity at Emax relative to R1881 (AR): < 40%
EC50 (AR; read-out: EC50, AR agonist activity): 0.069 µM
mean Dmax for polyQ-AR in myotube nuclei (polyQ-AR [2]): approximately 40%
